The source of these data is paper PMC11494886, “Discovery and design of molecular glue enhancers of CDK12–DDB1 interactions for targeted degradation of cyclin K” (RSC Chemical Biology, 2024).

For assay [1], the system named is HEK-293TDDB1-shRNA cells. The assay can be described thus: CellTiter-Glo viability assay, HEK-293T DDB1-shRNA. It counts as cell-based, human. The following applies: 72 hours; for EC50: Homo sapiens, HEK-293T DDB1 shRNA, CellTiter-Glo, read-out: EC50 cell viability. An excerpt: For stable genetic knock-down of DDB1 in cells, predesigned and validated TRC2-pLKO-puro shRNA plasmids for DDB1 (TRCN0000082855 and TRCN0000082856), and a non-targeting shRNA plasmid (SHC001) were obtained from Millipore Sigma. All plasmids were purified using the Qiagen Maxiprep kit (Qiagen). FuGENE HD 6 transfection reagent (Promega) was used for transfection of plasmids and lentiviral gene/shRNA constructs. Mission lentiviral packaging mix (Millipore Sigma) was used to package lentiviral plasmids into lentiviral particles in HEK293T cells, as per manufacturer's protocols. The resultant virus was concentrated using Vivaspin 20 centrifugal concentrators (Sartorius). MDA-MB-231 and HEK293T cells were transduced with lentivirus. Stable knocked down DDB1 (shDDB1-231 and shDDB1-HEK293T) cells were generated after selection with the antibiotic puromycin, and genetic knockdown was confirmed by western blotting.
Cell viability was measured by Cell Titer Glo assay kit (Promega, USA). EC50 was determined from the nonlinear regression and a four-parameter algorithm on the GraphPad Prism software.

Assay [2] has as its target T1, Cdk12/CycK and DDB1ΔB (Homo sapiens, UniProt Q16531+Q9NYV4, DEL396-705).
T1 construct: the Cdk12 (714–1063)/CycK (1–267) complex and the DDB1ΔB protein; made in house; host or cells: Sf9 insect cells (MultiBacTurbo)
The assay can be described thus: Thermal stability (nanoDSF) of mixture of DDB1ΔB and Cdk12/CycK. It counts as binding. As to conditions: Cdk12/CycK and DDB1ΔB 5 μM each, 3-fold molar excess of compound. An excerpt:
(§1) Synthetic genes, codon optimized for expression in Sf9 insect cells, comprising the kinase domain of human Cdk12 (residues 714–1063, UniProt accession number Q9NYV4) and cyclin box domains of human cyclin K (residues 1–267, UniProt accession number O75909) were purchased from GeneArt. The coding sequence of Cdk12 was integrated into the pACEBac1 acceptor vector, while CycK was introduced into pIDK donor vector. Both target vectors underwent modification, wherein a GST-affinity tag followed by a tobacco etch virus (TEV) protease cleavage site was introduced upstream of the protein coding sequence. A pIDC donor vector was employed to insert full-length CDK-activating kinase CAK1 (UniProt accession number P43568) from S. cerevisiae devoid of any affinity tag. […]
The human wild-type BPB domain deletion version (ΔBPB: amino acids 396–705 deleted) of DNA damage-binding protein 1 (DDB1) (residues 1–1140 Δ396–705, UniProt accession number Q16531) was PCR-amplified from AddGene plasmid #124213 and inserted into a pACEBac1 vector, which had been modified with a N-terminal His6 affinity tag. […] After loading the supernatant, the column was washed with 10 column volumes (CV) lysis buffer to achieve baseline levels of absorbance at 280 nm wavelength, followed by 3 CV of wash buffer (50 mM Tris pH 8, 200 mM NaCl, 1 mM TCEP, 50 mM Imidazole) and another round of lysis buffer (5 CV). […]

Assay [3] has as its target T2, Cdk12/CycK (Homo sapiens, UniProt Q9NYV4).
T2 construct: GST (N, cleaved yes); made in house; host or cells: Sf9 insect cells (MultiBacTurbo), co-expressed with S. cerevisiae CAK1
The assay can be described thus: Thermal stability (nanoDSF) of Cdk12/CycK. It counts as binding. As to conditions: Cdk12/CycK 5 μM, 3-fold molar excess of compound.
Excerpt: as §1, with “tag. Cre recombination was performed to combine all three vectors in vitro, resulting in fused vectors suitable for co-expression in Sf9 insect cells.” for “tag.”
To investigate the thermal stability of proteins and protein complexes in solution, as well as to examine the impact of small molecular compounds on the proteins stability, the nano-differential scanning fluorimetry (nanoDSF) method was employed using a Prometheus NT.48 (NanoTemper) device. […] Thermal stability was monitored over a temperature range of 20–90 °C with a linear gradient of 1.5 °C min^−1, utilizing the PR.ThermControl software (NanoTemper). […]

Structures are written as SMILES.

T1 sequence (Q9NYV4 714-1063, stated change not applied): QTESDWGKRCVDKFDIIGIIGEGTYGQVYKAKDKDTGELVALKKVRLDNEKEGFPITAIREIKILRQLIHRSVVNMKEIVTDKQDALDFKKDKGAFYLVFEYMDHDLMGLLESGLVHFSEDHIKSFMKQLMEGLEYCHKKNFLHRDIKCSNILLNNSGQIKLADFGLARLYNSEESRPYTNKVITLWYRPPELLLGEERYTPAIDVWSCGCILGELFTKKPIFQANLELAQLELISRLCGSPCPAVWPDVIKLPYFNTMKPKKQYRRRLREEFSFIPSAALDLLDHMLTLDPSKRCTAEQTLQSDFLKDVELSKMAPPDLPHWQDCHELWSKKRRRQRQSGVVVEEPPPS
T1 sequence (O75909 1-267 partner limits assumed): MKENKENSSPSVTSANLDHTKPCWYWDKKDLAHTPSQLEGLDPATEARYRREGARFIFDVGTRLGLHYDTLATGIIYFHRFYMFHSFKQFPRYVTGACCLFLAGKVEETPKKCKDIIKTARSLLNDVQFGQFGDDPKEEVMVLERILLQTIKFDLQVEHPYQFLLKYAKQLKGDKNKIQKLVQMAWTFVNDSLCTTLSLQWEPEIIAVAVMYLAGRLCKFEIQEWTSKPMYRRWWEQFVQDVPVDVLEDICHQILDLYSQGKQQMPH
T1 sequence (Q16531 with tags, fused parts or gaps DEL396-705): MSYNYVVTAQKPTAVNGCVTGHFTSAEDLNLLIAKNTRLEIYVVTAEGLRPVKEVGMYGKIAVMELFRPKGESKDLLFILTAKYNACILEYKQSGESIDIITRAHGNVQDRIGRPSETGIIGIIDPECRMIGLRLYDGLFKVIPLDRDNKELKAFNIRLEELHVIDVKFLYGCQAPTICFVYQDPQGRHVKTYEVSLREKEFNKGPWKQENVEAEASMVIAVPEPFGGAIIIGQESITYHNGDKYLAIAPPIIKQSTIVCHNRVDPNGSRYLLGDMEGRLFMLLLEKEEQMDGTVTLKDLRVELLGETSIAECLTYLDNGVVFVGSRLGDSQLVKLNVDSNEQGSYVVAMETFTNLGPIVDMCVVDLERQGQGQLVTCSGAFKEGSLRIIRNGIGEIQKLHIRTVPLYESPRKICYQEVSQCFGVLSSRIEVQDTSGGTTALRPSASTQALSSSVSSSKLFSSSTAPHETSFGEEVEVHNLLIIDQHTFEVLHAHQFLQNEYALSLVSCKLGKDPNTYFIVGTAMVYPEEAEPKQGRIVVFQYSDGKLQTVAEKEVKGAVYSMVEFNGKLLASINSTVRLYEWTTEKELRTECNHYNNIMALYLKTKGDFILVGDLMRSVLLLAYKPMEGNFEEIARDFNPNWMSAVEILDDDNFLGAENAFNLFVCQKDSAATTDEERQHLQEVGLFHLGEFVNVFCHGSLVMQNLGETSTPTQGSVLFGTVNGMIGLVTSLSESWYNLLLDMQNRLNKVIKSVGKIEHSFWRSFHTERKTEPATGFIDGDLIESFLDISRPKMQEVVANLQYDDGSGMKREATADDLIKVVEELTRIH
T2 sequence (Q9NYV4 714-1063): as the sequence (Q9NYV4 714-1063, stated change not applied) above
T2 sequence (O75909 1-267 partner limits assumed): as the sequence (O75909 1-267 partner limits assumed) above

In the case of `Cn1cc(-n2cnc3c(NCc4nc5cc(Cl)c(Cl)cc5[nH]4)nc(N4CCOCC4)nc32)cn1` [SR-4835], in assay [1], the EC50 worked out at 2000 nM. Moreover, the ΔTm result in assay [2] was “+5.05 °C”. In addition, the “ΔTm (elevation of melting temperature)” value in assay [3] is “+4.1 °C”.
As for `CN(C)C/C=C/C(=O)Nc1ccc(C(=O)N2CCC[C@@H](Nc3ncc(Cl)c(-c4c[nH]c5ccccc45)n3)C2)cc1` [THZ531, reference compound], the “fold change of EC50 (DDB1 shRNA vs WT)” value in assay [1] (HEK-293T DDB1 shRNA vs WT HEK-293T) is “ns”. Besides, the EC50 in assay [1] came to 231 nM. Also, in assay [2], the ΔTm entry was “+2 °C”. The “ΔTm (elevation of melting temperature)” value in assay [3] was “+4.15 °C”.

By EC50 is commonly meant the concentration giving half of the maximal effect.
